Data: patent publication US11628168B2, “Medical application of pyrimidine sulfonamides derivatives” (CHINESE PLA GENERAL HOSPITAL, priority 2018, dated 2023)

What was measured:
Type in all cases: in vivo, SD rats
[1] = tested on: pulmonary arterial hypertension of model rats; experiment: Rat haemodynamics: mean pulmonary arterial pressure by right heart catheter, low-pressure low-oxygen model; settings: for mPVP: x±s
Procedure: (§1) 40 healthy SD rats (180-220 g, male) are purchased from Beijing Vital River Laboratory Animal Technology Co. Ltd, belong to the SPF grade and have the license number of SCXK(Jing)2016-0006. The healthy SD rats are fed in a low-pressure oxygen cabin, and regularly fed with a complete nutritional feed under the conditions of the temperature of 22 to 25° C. and the humidity of 30% to 50%.
(§2) Solvent configuration: 5% of DMSO and 95% of normal saline with 10% of HP-β-CD, and pH=9.
(§3) An experimental group A: a low-pressure low-oxygen cabin, and intragastric administration of sc0062 (15 mg/kg) as well as a solvent
(§4) An experimental group B: a low-pressure low-oxygen cabin, and intragastric administration of sc0062 (30 mg/kg) as well as a solvent
40 rats are randomly divided into four groups, each group includes 10 rats, 3 groups are placed into a low-pressure low-oxygen cabin, the pressure of the oxygen cabin is regulated to 380 mmHg, a high altitude environment with an altitude of 5,500 meters is simulated, the low-pressure low-oxygen cabin is opened for 1 hour every day so as to add foods and water for animals and carry out corresponding medicine treatment, and meanwhile, the environment where the rats are positioned are kept alternate day and night according to a ratio of 12 h:12 h. […]
3% pentobarbital sodium (0.2 mL/100 g) is intraperitoneally injected to anesthetize the rats, ultrasonic detection is carried out, and the following ultrasonic data is recorded: PAT/PET (pulmonary arterial blood flow acceleration time/right ventricular […]); right ventricular ejection fraction EF; a right ventricular fractional shortening FS; and tricuspid annular plane systolic excursion TAPSE. […] A catheter is inserted into each right ventricle, and the right ventricular systolic pressure is recorded. Then each catheter is slowly pushed forwards, can reach a corresponding pulmonary artery through a corresponding right ventricular outflow tract, the pressure waveform of a monitor is observed, and the mean pulmonary arterial pressure mPAP is recorded. […]

[2] = tested on: right ventricular hypertrophy of rats in low-pressure low-oxygen cabin; experiment: Rat right ventricular hypertrophy index, low-pressure low-oxygen model; settings: for Full heart / RV (weight of the right ventricles) / RV/(LV + IS) right ventricular hypertrophy index: x±s
Procedure: as §1, §2, §3, §4
(§5) 40 rats are randomly divided into four groups, each group includes 10 rats, 3 groups are placed into a low-pressure low-oxygen cabin, the pressure of the oxygen cabin is regulated to 380 mmHg, a high altitude environment with an altitude of 5,500 meters is simulated, the low-pressure low-oxygen cabin is opened for 1 hour every day so as to add foods and water for animals and carry out corresponding medicine treatment, and meanwhile, the environment where the rats are positioned are kept alternate day and night according to a ratio of 12 h:12 h. After 3 groups of rats are in the oxygen-poor environment for 14 days, intragastric administration is respectively carried out on the 3 groups of rats, the solvent (the model group), the sc0062 (15 mg/kg) and the solvent (the experimental group A) and the sc0062 (30 mg/kg) and the solvent (the experimental group B) are respectively applied to the 3 groups of rats, and the operation is continued for 14 days. Rats in the fourth group (the blank control group) are placed in the same room to be fed in the normal-pressure normal-oxygen environment.
(§6) 3% pentobarbital sodium (0.2 mL/100 g) is intraperitoneally injected to anesthetize the rats, ultrasonic detection is carried out, and the following ultrasonic data is recorded: PAT/PET (pulmonary arterial blood flow acceleration time/right ventricular […]); right ventricular ejection fraction EF; a right ventricular fractional shortening FS; and tricuspid annular plane systolic excursion TAPSE. The anesthetize rats are fixed on an operating table in a supine position mode, tracheotomy is carried out, a breathing machine is connected, and thoracotomy is carried out to expose the hearts. A catheter is inserted into each right ventricle, and the right ventricular systolic pressure is recorded. Then each catheter is slowly pushed forwards, can reach a corresponding pulmonary artery through a corresponding right ventricular outflow tract, the pressure waveform of a monitor is observed, and the mean pulmonary arterial pressure mPAP is recorded. Blood is collected and the rats are executed. The hearts and the lung tissue are taken out, the atrial tissue and the root of the main artery are removed, left and right ventricles are separated, bloodstain is washed out in PBS, moisture is sucked up by filter paper, and the weight of the right ventricles (RV) and the weight of the left ventricles and the […] (LV+IS) are respectively weighed. Calculation is carried out according to the following formula: right ventricular hypertrophy index=RV/(LV+IS).
(§7) All the data is represented by x±s, comparison among the groups is single factor analysis of variance, when P<0.05, it represents that the difference has a statistical significance, and statistical treatment is carried out by adopting an SPSS 22.0 software package.

[3] = tested on: right ventricular function of rats in low-pressure low-oxygen cabin; experiment: Echocardiography of rats in low-pressure low-oxygen cabin (simulated altitude 5,500 m); settings: x±s
Procedure: as §1, §2, §3, §4, §5, §6, §7

[4] = 15 mg/kg intragastric for 14 days after 14 days hypoxia (380 mmHg)
[5] = 30 mg/kg intragastric for 14 days after 14 days hypoxia (380 mmHg)

COCCNS(=O)(=O)Nc1ncnc(OCCOc2ncc(Br)cn2)c1-c1ccc2c(c1)OCO2 [sc0062] was tested, and the mPVP [1, 4] was 31.39 ± 3.90, the mPVP [1, 5] was 26.91 ± 4.35 and the “mean pulmonary arterial pressure compared with the model group” value ([1]; experimental groups A and B (15 and 30 mg/kg), p<0.01) was “significantly raised”. For the same compound, the Full heart [2, 4] was 1.47 ± 0.24, the “RV (weight of the right ventricles)” value [2, 4] was 0.56 ± 0.09 and the “RV/(LV + IS) right ventricular hypertrophy index” value [2, 4] was 0.38 ± 0.02. The Full heart [2, 5] was 1.30 ± 0.21, the “RV (weight of the right ventricles)” value [2, 5] was 0.48 ± 0.11 and the “RV/(LV + IS) right ventricular hypertrophy index” value [2, 5] was 0.36 ± 0.02. For the same compound, the “right ventricular hypertrophy index compared with the model group” value ([2]; experimental groups A and B (15 and 30 mg/kg), p<0.05) was “reduced”, the PAT/PET [3, 4] was 0.39 ± 0.07 and the “Right ventricular EF” value [3, 4] was 67.25 ± 13.01. The “Right ventricular FS” value [3, 4] was 37.02 ± 10.63, the TAPSE [3, 4] was 2.05 ± 0.29 and the PAT/PET [3, 5] was 0.40 ± 0.07. For the same compound, the “Right ventricular EF” value [3, 5] was 71.32 ± 9.35, the “Right ventricular FS” value [3, 5] was 39.76 ± 7.24 and the TAPSE [3, 5] was 1.93 ± 0.44.
